Reference: patent US20260022142A1, “MACROCYCLIC IMMUNOMODULATORS” (Bristol-Myers Squibb Company, priority 2022, published 2026)
Bridge positions count the residues as written; N and C are the ends. Square brackets hold non-standard residues; d marks the D form. Peptide text beside a SMILES is read from it. * marks the point of attachment. ξ: configuration not given here. Bip = N[C@@H](Cc1ccc(-c2ccccc2)cc1)C(=O)O; NH(CH2)14COOH = O=C(O)CCCCCCCCCCCCCCN*; hArg = N=C(N)NCCCC[C@H](N)C(=O)O; 4Pal = N[C@@H](Cc1ccncc1)C(=O)O; Cha = N[C@@H](CC1CCCCC1)C(=O)O; Thr(3ξ) = CC(O)[C@H](N)C(=O)O; Carboxymethyl = O=C(O)C*; Orn = NCCC[C@H](N)C(=O)O; Aun = NCCCCCCCCCCC(=O)O; Dab = NCC[C@H](N)C(=O)O; AEEA = NCCOCCOCC(=O)O

target: T1, PD-1/PD-L1 interaction (PE-labeled human PD-L1-Ig binding to Jurkat cell line over-expressing human PD-1) (Homo sapiens, UniProt Q15116); assay: Jurkat-PD-1 Cell Binding High-Content Screening Assay (CBA); assay type: cell-based; details: Jurkat cell line over-expressing human PD-1; PE-labeled PD-L1-Ig 20 nM final; read-out: Jurkat hPD1-PDL1 IC50
T1 construct: expressed in transfected cells; host or cells: Jurkat
T1 sequence (Q15116 25-288): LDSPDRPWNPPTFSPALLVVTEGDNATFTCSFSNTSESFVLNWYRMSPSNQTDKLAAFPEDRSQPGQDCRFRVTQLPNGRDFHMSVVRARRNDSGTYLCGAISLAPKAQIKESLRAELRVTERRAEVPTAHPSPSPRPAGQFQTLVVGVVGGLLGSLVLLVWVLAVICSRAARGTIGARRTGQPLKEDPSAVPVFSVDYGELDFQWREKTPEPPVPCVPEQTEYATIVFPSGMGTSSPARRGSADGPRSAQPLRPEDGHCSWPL
Procedure, shortened: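 Human PD-L1-Ig carrying a covalent PE label on its Ig tag serves as the probe, applied at 20 nM final to compound-treated (2 h, 37° C) Jurkat-hPD-1 cells in medium with 10% fetal calf serum. After one hour, fixation and nuclear staining precede high-content image analysis.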

Structure (SMILES)	IC50
CC(C)C[C@H]1NC(=O)[C@H](CCCN)NC(=O)[C@H](C(C)C)NC(=O)[C@H](Cc2ccc(-c3ccccc3)cc2)NC(=O)[C@H](C(C)C)NC(=O)[C@H](Cc2c[nH]c3ccccc23)NC(=O)[C@H](CC(=O)O)NC(=O)[C@H](Cc2ccc(OCC(=O)O)cc2)NC(=O)[C@H](CCCCNC(=N)N)NC(=O)CSC[C@@H](C(=O)N[C@@H](C)C(=O)NCCOCCOCC(=O)N[C@@H](CCN)C(=O)NCCCCCCCCCCC(=O)O)NC(=O)[C@H](C(C)O)NC(=O)[C@H](C(C)C)NC(=O)[C@H](CC2CCCCC2)NC(=O)[C@H](CCN)NC1=O (stereo partly drawn) [Compound 3028] ({CH2CO}-[hArg]Y(Carboxymethyl)DWV[Bip]V[Orn][dL][Dab][Cha]V[Thr(3ξ)]CA[AEEA][Dab][Aun]-OH; thioether N-14)	16.4 nM
CC(C)C[C@H]1NC(=O)[C@H](CCCN)NC(=O)[C@H](C(C)C)NC(=O)[C@H](Cc2ccc(-c3ccccc3)cc2)NC(=O)[C@H](C(C)C)NC(=O)[C@H](Cc2c[nH]c3ccccc23)NC(=O)[C@H](CC(=O)O)NC(=O)[C@H](Cc2ccc(OCC(=O)O)cc2)NC(=O)[C@H](CCCCNC(=N)N)NC(=O)CSC[C@@H](C(=O)N[C@@H](CC(N)=O)C(=O)NCCOCCOCC(=O)N[C@@H](CCCN)C(=O)NCCCCCCCCCCC(=O)O)NC(=O)[C@H](C(C)O)NC(=O)[C@H](C(C)C)NC(=O)[C@H](CC2CCCCC2)NC(=O)[C@H](CCN)NC1=O (stereo partly drawn) [Compound 3030] ({CH2CO}-[hArg]Y(Carboxymethyl)DWV[Bip]V[Orn][dL][Dab][Cha]V[Thr(3ξ)]CN[AEEA][Orn][Aun]-OH; thioether N-14)	12.1 nM
CC(C)C[C@H]1NC(=O)[C@H](CCCN)NC(=O)[C@H](C(C)C)NC(=O)[C@H](Cc2ccc(-c3ccccc3)cc2)NC(=O)[C@H](C(C)C)NC(=O)[C@H](Cc2c[nH]c3ccccc23)NC(=O)[C@H](CC(=O)O)NC(=O)[C@H](Cc2ccc(OCC(=O)O)cc2)NC(=O)[C@H](CCCCNC(=N)N)NC(=O)CSC[C@@H](C(=O)N[C@@H](C)C(=O)NCCOCCOCC(=O)N[C@@H](CCCN)C(=O)NCCCCCCCCCCC(=O)O)NC(=O)[C@H](C(C)O)NC(=O)[C@H](C(C)C)NC(=O)[C@H](CC2CCCCC2)NC(=O)[C@H](Cc2c[nH]cn2)NC1=O (stereo partly drawn) [Compound 3032] ({CH2CO}-[hArg]Y(Carboxymethyl)DWV[Bip]V[Orn][dL]H[Cha]V[Thr(3ξ)]CA[AEEA][Orn][Aun]-OH; thioether N-14)	26.5 nM
CC(C)C[C@H]1NC(=O)[C@H](CCCN)NC(=O)[C@H](CCC(=O)O)NC(=O)[C@H](Cc2ccc(-c3ccccc3)cc2)NC(=O)[C@H](C(C)C)NC(=O)[C@H](Cc2c[nH]c3ccccc23)NC(=O)[C@H](CC(=O)O)NC(=O)[C@H](Cc2ccncc2)NC(=O)[C@H](CCCCNC(=N)N)NC(=O)CSC[C@@H](C(=O)N[C@@H](C)C(=O)NCCOCCOCC(=O)N[C@@H](CCCCN)C(=O)NCCCCCCCCCCCCCCC(=O)O)NC(=O)[C@H](CO)NC(=O)[C@H](C(C)C)NC(=O)[C@H](CC2CCCCC2)NC(=O)[C@H](CCN)NC1=O [Compound 3034] ({CH2CO}-[hArg][4Pal]DWV[Bip]E[Orn][dL][Dab][Cha]VSCA[AEEA]K-{NH(CH2)14COOH}; thioether N-14)	109 nM

These reach a lower IC50. Values come first.

IC50	Structure (SMILES)
11.3 nM	CC(C)C[C@H]1NC(=O)[C@H](CCCN)NC(=O)[C@H](C(C)C)NC(=O)[C@H](Cc2ccc(-c3ccccc3)cc2)NC(=O)[C@H](C(C)C)NC(=O)[C@H](Cc2c[nH]c3ccccc23)NC(=O)[C@H](CC(=O)O)NC(=O)[C@H](Cc2ccc(OCC(=O)O)cc2)NC(=O)[C@H](C(C)O)NC(=O)CSC[C@@H](C(=O)N[C@@H](C)C(=O)NCCOCCOCC(=O)N[C@@H](CCCN)C(=O)NCCCCCCCCCCC(=O)O)NC(=O)[C@H](C(C)O)NC(=O)[C@H](C(C)C)NC(=O)[C@H](CC2CCCCC2)NC(=O)[C@H](Cc2c[nH]cn2)NC1=O (stereo partly drawn) [Compound 3033] ({CH2CO}-[Thr(3ξ)]Y(Carboxymethyl)DWV[Bip]V[Orn][dL]H[Cha]V[Thr(3ξ)]CA[AEEA][Orn][Aun]-OH; thioether N-14)
10.7 nM	CC(C)C[C@H]1NC(=O)[C@H](CCCN)NC(=O)[C@H](C(C)C)NC(=O)[C@H](Cc2ccc(-c3ccccc3)cc2)NC(=O)[C@H](C(C)C)NC(=O)[C@H](Cc2c[nH]c3ccccc23)NC(=O)[C@H](CC(=O)O)NC(=O)[C@H](Cc2ccc(OCC(=O)O)cc2)NC(=O)[C@H](CCCCNC(=N)N)NC(=O)CSC[C@@H](C(=O)NCC(=O)NCCOCCOCC(=O)N[C@@H](CCCN)C(=O)NCCCCCCCCCCC(=O)O)NC(=O)[C@H](CO)NC(=O)[C@H](C(C)C)NC(=O)[C@H](CC2CCCCC2)NC(=O)[C@H](CCN)NC1=O [Compound 3035] ({CH2CO}-[hArg]Y(Carboxymethyl)DWV[Bip]V[Orn][dL][Dab][Cha]VSCG[AEEA][Orn][Aun]-OH; thioether N-14)
9.5 nM	CC(C)C[C@H]1NC(=O)[C@H](CCCN)NC(=O)[C@H](C(C)C)NC(=O)[C@H](Cc2ccc(-c3ccccc3)cc2)NC(=O)[C@H](C(C)C)NC(=O)[C@H](Cc2c[nH]c3ccccc23)NC(=O)[C@H](CC(=O)O)NC(=O)[C@H](Cc2ccc(OCC(=O)O)cc2)NC(=O)[C@H](C(C)O)NC(=O)CSC[C@@H](C(=O)N[C@@H](CC(N)=O)C(=O)NCCOCCOCC(=O)N[C@@H](CCCCN)C(=O)NCCCCCCCCCCC(=O)O)NC(=O)[C@H](C(C)O)NC(=O)[C@H](C(C)C)NC(=O)[C@H](CC2CCCCC2)NC(=O)[C@H](CCN)NC1=O (stereo partly drawn) [Compound 3027] ({CH2CO}-[Thr(3ξ)]Y(Carboxymethyl)DWV[Bip]V[Orn][dL][Dab][Cha]V[Thr(3ξ)]CN[AEEA]K[Aun]-OH; thioether N-14)
7.9 nM	CC(C)C[C@H]1NC(=O)[C@H](CCCN)NC(=O)[C@H](C(C)C)NC(=O)[C@H](Cc2ccc(-c3ccccc3)cc2)NC(=O)[C@H](C(C)C)NC(=O)[C@H](Cc2c[nH]c3ccccc23)NC(=O)[C@H](CC(=O)O)NC(=O)[C@H](Cc2ccc(OCC(=O)O)cc2)NC(=O)[C@H](C(C)O)NC(=O)CSC[C@@H](C(=O)N[C@@H](C)C(=O)NCCOCCOCC(=O)N[C@@H](CCN)C(=O)NCCCCCCCCCCC(=O)O)NC(=O)[C@H](C(C)O)NC(=O)[C@H](C(C)C)NC(=O)[C@H](CC2CCCCC2)NC(=O)[C@H](CCN)NC1=O (stereo partly drawn) [Compound 3029] ({CH2CO}-[Thr(3ξ)]Y(Carboxymethyl)DWV[Bip]V[Orn][dL][Dab][Cha]V[Thr(3ξ)]CA[AEEA][Dab][Aun]-OH; thioether N-14)
3.4 nM	CC(C)C[C@H]1NC(=O)[C@H](CCCN)NC(=O)[C@H](C(C)C)NC(=O)[C@H](Cc2ccc(-c3ccccc3)cc2)NC(=O)[C@H](C(C)C)NC(=O)[C@H](Cc2c[nH]c3ccccc23)NC(=O)[C@H](CC(=O)O)NC(=O)[C@H](Cc2ccc(OCC(=O)O)cc2)NC(=O)[C@H](C(C)O)NC(=O)CSC[C@@H](C(=O)N[C@@H](CC(N)=O)C(=O)NCCOCCOCC(=O)N[C@@H](CCCN)C(=O)NCCCCCCCCCCC(=O)O)NC(=O)[C@H](C(C)O)NC(=O)[C@H](C(C)C)NC(=O)[C@H](CC2CCCCC2)NC(=O)[C@H](CCN)NC1=O (stereo partly drawn) [Compound 3031] ({CH2CO}-[Thr(3ξ)]Y(Carboxymethyl)DWV[Bip]V[Orn][dL][Dab][Cha]V[Thr(3ξ)]CN[AEEA][Orn][Aun]-OH; thioether N-14)
